{"source": "paper PMC7782499", "about": "“Progerinin, an optimized progerin-lamin A binding inhibitor, ameliorates premature senescence phenotypes of Hutchinson-Gilford progeria syndrome” (Communications Biology, 2021)", "key": {"Plasma stability, human": {"experiment": "Plasma stability, human", "type": "in vitro ADME", "protocol": "(§1) For PK analysis, 5 mg/kg of JH4 in 10% DMSO, 5% Tween 90, and 95% saline solution were intravenously injected and 10 mg/kg of JH4 in 10% NMP and 90% PEG400 solution were orally delivered. At pre-set time-points, blood concentration of JH4 was determined by LC-MS/MS analysis[22],[23]. Other chemicals were also tested using similar protocol. In vitro ADME studies (plasma protein binding, CYP inhibition, microsomal stability, plasma stability, and hERG inhibition) were performed by New Drug Development Center (Daegu, Korea) using standard protocols[24],[25]."}, "Lmna G609G/+ mouse": {"system": "Lmna G609G/+ mouse", "experiment": "Radiological examination (kyphosis index, incisors)", "type": "in vivo", "conditions": "Lmna G609G/+ mice", "protocol": "The radiographic study was performed in anaesthetized living mice using a human radiographic system (College of Veterinary Medicine, Gyeongsang National University, Korea). A single radiograph of right lateral view of the whole body was obtained. Age-matched (at 41 weeks old) Lmna^+/+ mice, untreated Lamn^G609G/+ mice, and progerinin-treated Lmna^G609G/+ mice were radiographed. The images were recorded in DICOM format and then transferred to a personal computer. KI[28],[30] and abnormalities of the incisors were evaluated. Data processing and analysis were performed using a RadiAnt DICOM system in Institute of Animal Medicine, College of Veterinary Medicine, Gyeongsang National University (Jinju, Korea). […]\nLmnaG609G transgenic mice at 41 weeks of age. Abundant adipose tissues are present in abdomens of\nLmna+/+ and progerin- treated LmnaG609G/+ mice compared to untreated LmnaG609G/+ mice. Kyphosis Index\n(KI) index was accessed after 8-week treatment.\nuntreated LmnaG609G/+, and D011- treated LmnaG609G/+ mice at 41 weeks of age (unpaired t-test), *p < 0.05.\nSeverity of kyphosis depends on genotype and treatment of SLC-D011. H. Gross morphology of age-"}, "[1]": {"experiment": "Plasma protein binding, human", "type": "in vitro ADME", "conditions": "human, plasma", "protocol": "as §1, with “At” for “For PK analysis, 5 mg/kg of JH4 in 10% DMSO, 5% Tween 90, and 95% saline solution were intravenously injected and 10 mg/kg of JH4 in 10% NMP and 90% PEG400 solution were orally delivered. At”"}, "CYP2D6": {"molecular_target": "CYP2D6 (Homo sapiens, UniProt P10635)", "sequence (P10635 whole entry)": "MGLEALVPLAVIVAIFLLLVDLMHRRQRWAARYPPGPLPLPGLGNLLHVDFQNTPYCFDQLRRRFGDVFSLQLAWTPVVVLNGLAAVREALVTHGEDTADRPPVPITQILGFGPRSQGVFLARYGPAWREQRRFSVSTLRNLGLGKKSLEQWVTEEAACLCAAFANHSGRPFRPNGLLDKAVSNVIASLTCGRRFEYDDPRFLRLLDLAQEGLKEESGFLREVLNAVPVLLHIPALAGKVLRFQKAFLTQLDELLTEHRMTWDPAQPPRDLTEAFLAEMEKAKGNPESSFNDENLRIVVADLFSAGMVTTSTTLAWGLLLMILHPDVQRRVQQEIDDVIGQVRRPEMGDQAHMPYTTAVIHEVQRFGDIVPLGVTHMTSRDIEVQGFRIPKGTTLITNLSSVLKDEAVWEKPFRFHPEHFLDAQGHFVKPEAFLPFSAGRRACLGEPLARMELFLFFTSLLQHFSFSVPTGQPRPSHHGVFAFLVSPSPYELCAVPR", "experiment": "CYP inhibition, CYP2D6", "type": "in vitro ADME", "protocol": "as §1, with “At” for “For PK analysis, 5 mg/kg of JH4 in 10% DMSO, 5% Tween 90, and 95% saline solution were intravenously injected and 10 mg/kg of JH4 in 10% NMP and 90% PEG400 solution were orally delivered. At”"}, "CYP2C9": {"molecular_target": "CYP2C9 (Homo sapiens, UniProt P11712)", "sequence (P11712 whole entry)": "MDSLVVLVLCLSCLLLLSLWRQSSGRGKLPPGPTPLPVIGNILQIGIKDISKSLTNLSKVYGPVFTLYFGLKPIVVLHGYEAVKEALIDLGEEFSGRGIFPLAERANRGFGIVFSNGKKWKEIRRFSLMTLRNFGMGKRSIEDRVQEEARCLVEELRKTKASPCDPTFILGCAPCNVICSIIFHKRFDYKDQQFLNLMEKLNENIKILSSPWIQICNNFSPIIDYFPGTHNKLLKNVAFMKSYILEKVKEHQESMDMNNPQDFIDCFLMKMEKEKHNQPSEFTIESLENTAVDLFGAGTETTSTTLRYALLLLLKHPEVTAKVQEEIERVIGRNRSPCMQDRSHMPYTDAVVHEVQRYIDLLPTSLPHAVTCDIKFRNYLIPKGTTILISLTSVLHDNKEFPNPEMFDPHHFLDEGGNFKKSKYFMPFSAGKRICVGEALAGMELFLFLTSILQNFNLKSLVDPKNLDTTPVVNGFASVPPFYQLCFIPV", "experiment": "CYP inhibition, CYP2C9", "type": "in vitro ADME", "set-up": "unit not given here", "protocol": "as §1, with “At” for “For PK analysis, 5 mg/kg of JH4 in 10% DMSO, 5% Tween 90, and 95% saline solution were intravenously injected and 10 mg/kg of JH4 in 10% NMP and 90% PEG400 solution were orally delivered. At”"}}, "note": "Values joined by “and” are separate entries in the source; they are usually repeats but may differ in a detail not shown here. Equal values may be shown once.", "data": [{"smiles": "CC1(C)Oc2cc3oc(=O)ccc3cc2C[C@@H]1OC/C=C/c1ccccc1", "note": "[SLC-D011]", "values": [{"measurement": "remaining at 0.5 h", "setting": "Plasma stability, human; 30min", "value": "> 100", "unit": "%"}, {"measurement": "remaining at 2 h", "setting": "Plasma stability, human; 120min", "value": "> 100", "unit": "%"}, {"measurement": "Abnormalities of incisors", "setting": "Lmna G609G/+ mouse; 41 weeks of age", "value": "ameliorated these abnormalities"}, {"measurement": "Kyphosis index (KI)", "setting": "Lmna G609G/+ mouse; 41 weeks of age", "value": "recovered"}, {"measurement": "Kyphosis index", "setting": "Lmna G609G/+ mouse; Ave", "value": 4.2583}, {"measurement": "Kyphosis index", "setting": "Lmna G609G/+ mouse; individual mouse", "value": "3.759 and 3.649 and 5.045 and 4.58"}, {"measurement": "fraction unbound", "setting": "[1]", "value": 0.001}, {"measurement": "CYP inhibition", "setting": "CYP2D6", "value": 91.7}, {"measurement": "CYP inhibition", "setting": "CYP2C9", "value": 78.4}]}]}
